Measurements from ChEMBL document CHEMBL1123001, “Ibotenic acid analogues. Synthesis, molecular flexibility, and in vitro activity of agonists and antagonists at central glutamic acid receptors” (J Med Chem, 1985).
Active and inactive are the calls of the source. No cut-off for these calls is given here.

Assays:
Rattus norvegicus [1] = species: Rattus norvegicus; test: Inhibition of [3H]AMPA binding in rat brain membrane was evaluated; assay type: functional
[2] = Antagonist activity was evaluated by NMDA-induced excitations of feline spinal neuron; activity is seen; assay type: functional; settings: filed as antagonist
[3] = NMDA Antagonist activity was evaluated; na means no activity; assay type: functional
[4] = NMDA Antagonist activity was evaluated; na means no activity; na means no activity; assay type: functional
Rattus norvegicus [5] = species: Rattus norvegicus; test: GDEE-sensitive neuronal excitant (Relative potency) was evaluated; +++; assay type: functional, organism-based
[6] = Antagonist activity was evaluated by NMDA-induced excitations of feline spinal neuron; no activity; assay type: functional

| Structure (SMILES) | IC50 (Rattus norvegicus [1]) | Antagonist activity [2] | Antagonist activity [3] | Antagonist activity [4] | Relative potency (Rattus norvegicus [5]) | Antagonist activity [6] |
| --- | --- | --- | --- | --- | --- | --- |
| NC(CCc1cc(O)no1)C(=O)O (centres undefined) | 64 µM | Antagonist | – | – | – | – |
| N[C@@H](CCC(=O)O)C(=O)O [GLUTAMIC ACID] | 1.3 µM | – | inactive | – | – | – |
| Cc1onc(O)c1C[C@@H](N)C(=O)O | 4.8 µM | – | inactive | – | – | – |
| Cc1c(O)noc1C(C)C(N)C(=O)O (centres undefined) | > 100 µM | – | inactive | – | – | – |
| Cc1onc(O)c1CC(N)C(=O)O (racemic) [(R,S)-AMPA] | 0.8 µM | – | – | inactive | Active | – |
| NC(Cc1c(O)noc1CBr)C(=O)O (centres undefined) | 0.6 µM | – | inactive | – | – | – |
| CC(C)(C)c1onc(O)c1CC(N)C(=O)O (centres undefined) | 10.6 µM | – | – | – | – | inactive |
| Cc1onc(O)c1C[C@H](N)C(=O)O [(S)-AMPA] | 0.6 µM | – | inactive | – | – | – |
| NC(CCCc1cc(O)no1)C(=O)O (centres undefined) | > 100 µM | Antagonist | – | – | – | – |
